The target in this test is T1, CRTh2 receptor (Homo sapiens, UniProt Q9Y5Y4).
T1 construct: expressed in transfected cells; host or cells: CHO.K1 cells (membranes)
T1 sequence (Q9Y5Y4 1-395): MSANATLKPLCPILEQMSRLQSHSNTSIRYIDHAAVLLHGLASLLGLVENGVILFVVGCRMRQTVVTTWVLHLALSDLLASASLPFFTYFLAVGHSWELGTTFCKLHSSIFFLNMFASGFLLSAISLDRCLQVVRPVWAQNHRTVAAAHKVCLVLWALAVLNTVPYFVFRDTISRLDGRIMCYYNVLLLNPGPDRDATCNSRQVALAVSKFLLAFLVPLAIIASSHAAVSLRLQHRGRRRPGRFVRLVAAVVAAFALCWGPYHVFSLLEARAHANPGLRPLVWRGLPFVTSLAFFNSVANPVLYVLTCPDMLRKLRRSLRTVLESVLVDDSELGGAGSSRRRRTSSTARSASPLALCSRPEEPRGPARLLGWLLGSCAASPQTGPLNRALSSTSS
Nature of the test: CRTh2 GTPγS antagonism binding assay. Type of test: biochemical. The following applies: membranes from CHO.K1 cells stably overexpressing the CRTh2 receptor; [35S]-GTPγS 0.1 nM; PGD2 at 50 nM (EC80); compound pre-incubated 1 h; read-out: GTPγ Binding. How it is done: CRTh2 GTPγS antagonism binding assay
The assay is performed using membranes obtained from CHO.K1 cells stably overexpressing the CRTh2 receptor and [^35S]-GTPγS as radioligand. Assay is performed pre-incubating 4-8 µg of membranes per well with the compound to be tested for 1 h, followed by incubation with PGD2 at 50 nM (EC80), 0.1 nM [^35S]-GTPγS in incubation buffer (20 mM HEPES, 10 mM MgCl2, 100 mM NaCl, 10 µM GDP, 10 µg/ml Saponine and 0.2% BSA) for 2 h at room temperature. The reaction is terminated by filtering in GF/C plates pre-treated with 20 mM HEPES, 10 mM MgCl2, 100 mM NaCl and washing 6 times with wash buffer (20 mM NaH2PO4, 20 mM Na2HPO4). After washing, plates are dried and scintillation buffer Optiphase added. The radioactivity retained in the filter is counted using a Microbeta liquid scintillation counter.
(GTPγS resists hydrolysis and so accumulates on activated G proteins.)
Take `Cc1c(CC(=O)O)c(-c2ccccc2)nn1Cc1ccccc1S(=O)(=O)c1ccccc1` [Example 15, {5-Methyl-3-phenyl-1-[2-(phenylsulfonyl)benzyl]-1H-pyrazol-4-yl}acetic acid]: the IC50 came to 6.8 nM.
Under `Cc1ccc(NC(=O)Nc2cccc(Cn3nc(C)c(CC(=O)O)c3C)c2)cc1` [Example 4, {3,5-Dimethyl-1-[3-({[(4-methylphenyl)amino]carbonyl}amino)benzyl]-1H-pyrazol-4-yl}acetic acid] stands 370 nM; under `Cc1c(CC(=O)O)c(-c2ccccc2)nn1Cc1ccccc1S(=O)(=O)N1CCCCC1` [Example 30, {5-Methyl-3-phenyl-1-[2-(piperidin-1-ylsulfonyl)benzyl]-1H-pyrazol-4-yl}acetic acid], 66 nM.
With `Cc1nn(-c2cccc(NC(=O)[C@@H]3C[C@H]3c3ccccc3)c2)c(C)c1CC(=O)O` (relative stereo) [Example 1, {3,5-Dimethyl-1-[3-({[trans-2-phenylcyclopropyl]carbonyl}amino)phenyl]-1H-pyrazol-4-yl}acetic acid], the IC50 was found to be 250 nM.
Under `Cc1c(CC(=O)O)c(-c2ccc(Cl)cc2)nn1Cc1ccccc1S(=O)(=O)c1ccccc1` [Example 26, {3-(4-Chlorophenyl)-5-methyl-1-[2-(phenylsulfonyl)benzyl]-1H-pyrazol-4-yl}acetic acid] stands 24 nM; under `Cc1c(CC(=O)O)c(-c2ccc(Cl)cc2)nn1Cc1ccccc1S(=O)(=O)N1CCOCC1` [Example 25, {3-(4-Chlorophenyl)-5-methyl-1-[2-(morpholin-4-ylsulfonyl)benzyl]-1H-pyrazol-4-yl}acetic acid], 94 nM; under `Cc1nn(Cc2ccccc2S(=O)(=O)c2ccccc2)c(C)c1CC(=O)O` [Example 13, {3,5-Dimethyl-1-[2-(phenylsulfonyl)benzyl]-1H-pyrazol-4-yl}acetic acid], 86 nM.
The figure for `Cc1c(CC(=O)O)c(=O)[nH]n1Cc1ccccc1S(=O)(=O)c1ccccc1` [Example 29, {3-Hydroxy-5-methyl-1-[2-(phenylsulfonyl)benzyl]-1H-pyrazol-4-yl}acetic acid] is 160 nM; for `Cc1c(CC(=O)O)c(-c2ccccc2)nn1Cc1ccccc1S(=O)(=O)N1CCOCC1` [Example 23, {5-Methyl-1-[2-(morpholin-4-ylsulfonyl)benzyl]-3-phenyl-1H-pyrazol-4-yl}acetic acid] it is 74 nM; for `Cc1c(CC(=O)O)c(-c2ccccc2)nn1Cc1ccccc1Cc1ccccc1` [Example 24, [1-(2-Benzylbenzyl)-5-methyl-3-phenyl-1H-pyrazol-4-yl]acetic acid] it is 105 nM.

The values above are taken from patent EP2457900A1, “New pyrazole derivatives having CRTh2 antagonistic behaviour” (Almirall, S.A., priority 2010, dated 2012).
